The supplement of paper PMC6470124

Assays:
[1] = LC retention time (Atlantis T3, 5-95% MeOH gradient, 0.1% formic acid); higher = more retained / less polar
Outline: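 Retention times were recorded for reference standards (purity ≥ 95%) on a polar reversed-phase C18 column (Atlantis T3, 3 × 150 mm, 3 μm) at 0.3 mL/min. Elution used water and methanol, each with 0.1% formic acid, in a gradient from 5 to 95% methanol over 17.5 min. Detection was by high-resolution tandem mass spectrometry on a QExactive Plus, with positive and negative electrospray in separate runs. Peaks were found and integrated in TraceFinder (5 ppm tolerance, at least three points per peak) and then checked by hand.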

[2] = absolute recovery over vacuum-assisted evaporative concentration; higher = better recovery; conditions: enrichment method: VEC
Outline: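 Water samples (influent 6 mL, effluent 15 mL, surface and nanopure water 60 mL) were spiked with standards before concentration, after concentration or not at all, at 200 ng/L (nanopure/surface) or 1000 ng/L (wastewater), with class- and compound-specific adjustments. They were evaporated at 55 °C and 20 mbar to about 0.3 mL, brought to 0.4 mL and centrifuged. Internal standards were added afterwards and samples were analysed by LC-HRMS/MS. Absolute recovery was (response ratio pre − unspiked)/(post − unspiked) × 100, using averages of ≥ 2 replicates.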

[3] = absolute recovery over mixed-bed multilayer solid-phase extraction; higher = better recovery; conditions: enrichment method: SPE
Outline: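 Wastewater (100–250 mL, adjusted to pH 6.5 and glass-fibre filtered) or 1000 mL unfiltered nanopure water was loaded on a three-layer mixed-bed cartridge and eluted with basic then acidic ethyl acetate/methanol. Standards were spiked before extraction, after it, or not at all, at 200 ng/L (water) or 1000 ng/L (wastewater), with class exceptions. Internal standards were added afterwards, then LC-HRMS/MS ran in both ionisation modes. Absolute recovery compares background-corrected response ratios of pre- versus post-spiked samples, averaged over at least two replicates.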

| SMILES | LC retention time [1] [min] | absolute recovery ([2]; wastewater effluent) [%] | absolute recovery ([2]; wastewater influent) [%] | absolute recovery ([3]; nanopure water) [%] | absolute recovery ([3]; surface water) [%] | absolute recovery ([3]; wastewater effluent) [%] | absolute recovery ([3]; wastewater influent) [%] |
| --- | --- | --- | --- | --- | --- | --- | --- |
| CC(O)C(=O)Nc1c(I)c(C(=O)NC(CO)CO)c(I)c(C(=O)NC(CO)CO)c1I (centres undefined) [Iopamidol] | 7.78 | 107 | 103 | 59.6 | 64.5 | 70 | 53 |
| Cc1cc(Cl)ccc1OCC(=O)[O-] [MCPA] | 19.3 | 102 | 103 | 96.1 | 92.9 | 92.7 | 94.2 |
| C[NH2+]CCC(Oc1ccc(C(F)(F)F)cc1)c1ccccc1 (centres undefined) [Fluoxetin] | 16.2 | 91.1 | 91.9 | 79.8 | 90.2 | 85.5 | 82.8 |
| COC(=O)c1ccccc1S(=O)(=O)[N-]C(=O)N(C)c1nc(C)nc(OC)n1 [Tribenuron-methyl] | 18.1 | 124 | 119 | – | 24.9 | 38 | – |
| C[NH+]1CCC23c4c5ccc(O)c4OC2C(O)C=CC3C1C5 (centres undefined) [Morphin] | 7.4 | 104 | 99.7 | 81.1 | 91.3 | 87.9 | 89.6 |
| O=C(NCCc1ncc(C(F)(F)F)cc1Cl)c1ccccc1C(F)(F)F [Fluopyram] | 19.9 | 105 | 54.9 | 101 | 93.4 | 93 | 102 |
| O=P1(NCCCl)OCCCN1CCCl (centres undefined) [Ifosfamid] | 15.5 | 102 | 99.2 | 109 | 99.4 | 92.9 | 89.1 |
| CN(C)C(=O)Nc1ccc(Cl)cc1 [Monuron] | 16.9 | 103 | 106 | 99.5 | – | 94.3 | 90.3 |
| CCNc1nc(Cl)nc(NC(C)(C)C)n1 [Terbutylazin] | 19.7 | 95 | 91.9 | 94.9 | 95 | 93.8 | 93.4 |
| COc1cc(C)c(C(=O)c2c(OC)ccc(Br)c2C)c(OC)c1OC [Metrafenone] | 21.4 | 84.4 | 101 | 103 | 92.4 | 85.4 | 117 |
| CC1=NNC(=O)N(N=Cc2cccnc2)C1 [Pymetrozin] | 8.65 | 107 | 110 | 118 | 112 | 106 | 97 |
| Oc1cc(Cl)ccc1Oc1ccc(Cl)cc1Cl [Triclosan] | 21.9 | – | 117 | 97.2 | 90.7 | 90 | 92.3 |
| CC(COc1ccccc1Cc1ccccc1)[NH+]1CCCCC1 (centres undefined) [Benproperine] | 16.2 | 117 | 109 | 93.2 | 111 | 93.7 | 70.7 |
| CCNc1nc(O)nc(NC(C)C)n1 [Atrazin-2-Hydroxy] | 11.4 | 102 | 102 | 97.8 | 98 | 94.5 | 90 |

More lines, now with the values ahead:

| LC retention time [1] [min] | absolute recovery ([2]; wastewater effluent) [%] | absolute recovery ([2]; wastewater influent) [%] | absolute recovery ([3]; nanopure water) [%] | absolute recovery ([3]; surface water) [%] | absolute recovery ([3]; wastewater effluent) [%] | absolute recovery ([3]; wastewater influent) [%] | SMILES |
| --- | --- | --- | --- | --- | --- | --- | --- |
| 21.3 | 110 | 99.1 | 81.6 | 67.5 | 87.9 | 97.3 | CCc1cccc(C)c1N(C(=O)C(=O)[O-])C(C)COC (centres undefined) [Metolachlor-OXA] |
| 15.6 | 89.3 | – | 103 | 112 | 104 | 64.6 | Nc1ccn(C2OC(CO)C(O)C2O)c(=O)n1 (centres undefined) [Cytarabin] |
| 9.72 | 103 | 101 | 75.9 | 87.2 | 84.2 | 85.2 | Nc1nc(=O)n(C2CSC(CO)O2)cc1F (centres undefined) [Emtricitabine] |
| 18.1 | 89.6 | – | 102 | 86.5 | 83.1 | 91.2 | CCc1cccc(C)c1N1C(=O)COCC1C (centres undefined) [Metolachlor-Morpholinon] |
| 12.3 | 105 | 107 | 76.8 | 79.4 | 82.1 | 91.7 | O=C1C=CC(=C2NC=CNC2=O)C=C1 [Amoxicillin-EP-Impurity-F] |
| 7.95 | 93.6 | 27 | 12 | 11 | 11.7 | 17 | Cn1sccc1=O [2-Methyl-4-isothiazolin-3-one] |
| 18.3 | 99.1 | 105 | 85.5 | 85.9 | 80.1 | 88 | CCCCc1nc(Cl)c(CO)n1Cc1ccc(-c2ccccc2-c2nn[nH]n2)cc1 [Losartan] |
| 13.8 | 110 | 98.1 | 103 | 91.8 | 91.4 | 89.8 | CC(C)[NH2+]CC(O)COc1ccc(COCCOC(C)C)cc1 (centres undefined) [Bisoprolol] |
| 14.9 | 104 | 98.4 | 95.1 | 92 | 90.3 | 90 | COc1cc([N-]S(=O)(=O)c2ccc(N)cc2)nc(OC)n1 [Sulfadimethoxin] |
| 10.7 | 103 | 95.5 | 98.5 | 93.6 | 88.1 | 96.2 | Nc1ccc(S(=O)(=O)[N-]c2ccccn2)cc1 [Sulfapyridin] |
| 15.7 | 105 | 102 | 96.6 | 97.3 | 94.8 | 92.2 | NC(=O)N1c2ccccc2C2OC2c2ccccc21 (centres undefined) [Carbamazepin-10-11-epoxid] |
